Results on eleven molecules are retold here after ChEMBL document CHEMBL4602629, “Isolation of three new meroterpenoids and seven known compounds from Albatrellus yasudae and their Aβ-aggregation inhibitory activity” (Bioorg Med Chem Lett, 2020).

The structures appear in SMILES notation.

The assay has as its target Amyloid-beta precursor protein (Homo sapiens, UniProt P05067). The assay can be described thus: Inhibition of human amyloid beta (1 to 40) aggregation after 24 hrs by ThT fluorescence assay.

Sequence of Amyloid-beta precursor protein (P05067 whole entry): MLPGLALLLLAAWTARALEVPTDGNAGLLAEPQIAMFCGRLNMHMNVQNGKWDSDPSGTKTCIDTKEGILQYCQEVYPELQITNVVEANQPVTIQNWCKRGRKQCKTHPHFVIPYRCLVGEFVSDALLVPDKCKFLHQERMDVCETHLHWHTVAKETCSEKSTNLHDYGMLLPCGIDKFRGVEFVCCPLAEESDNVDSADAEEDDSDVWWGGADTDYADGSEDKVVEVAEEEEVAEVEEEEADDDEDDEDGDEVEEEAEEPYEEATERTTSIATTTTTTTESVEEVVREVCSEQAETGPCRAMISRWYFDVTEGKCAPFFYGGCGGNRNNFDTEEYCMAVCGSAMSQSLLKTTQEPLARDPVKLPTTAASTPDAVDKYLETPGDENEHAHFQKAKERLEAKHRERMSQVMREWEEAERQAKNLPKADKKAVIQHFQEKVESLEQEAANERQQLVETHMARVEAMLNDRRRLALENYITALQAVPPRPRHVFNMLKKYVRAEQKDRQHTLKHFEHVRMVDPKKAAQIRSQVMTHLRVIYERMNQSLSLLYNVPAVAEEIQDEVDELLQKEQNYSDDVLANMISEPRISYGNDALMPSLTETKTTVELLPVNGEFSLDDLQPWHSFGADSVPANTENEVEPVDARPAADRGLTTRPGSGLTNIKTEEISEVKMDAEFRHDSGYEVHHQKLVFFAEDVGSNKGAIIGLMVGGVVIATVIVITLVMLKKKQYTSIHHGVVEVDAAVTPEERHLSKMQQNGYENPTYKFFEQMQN

For `COc1c(O)c(O)c(-c2c(C)c(C/C=C(\C)CC/C=C(\C)CCC=C(C)C)c(OC)c(O)c2O)c(C)c1C/C=C(\C)CC/C=C(\C)CCC=C(C)C`, the IC50 turned out to be 12.3 µM.

Molecule `CC(C)=CCC/C(C)=C/CC/C(C)=C/Cc1c(C)cc(O)c(O)c1O` had an IC50 of 16.7 µM. Under `CC(C)=CCC/C(C)=C/CC/C(C)=C/Cc1c(C)cc(O)cc1O` stands 19.9 µM. `COC(=O)c1c(C)cc(O)c(C/C=C(\C)CC/C=C(\C)CCC=C(C)C)c1O` yielded an IC50 of 221 µM. For `CC(C)=CC(=O)C/C(C)=C/CC/C(C)=C/Cc1c(O)cc(C)c(C(=O)O)c1O`, half-maximal inhibition (IC50) was put at 151 µM. As to `CC(C)=CCC/C(C)=C/CCC1(C)C=Cc2c(O)cc(C)cc2O1` (stereo unspecified), half-maximal inhibition (IC50) required 68 µM.

Regarding `COc1c(O)c(O)cc(C)c1C/C=C(\C)CC/C=C(\C)CCC=C(C)C`, 29.3 µM corresponded to half-maximal inhibition (IC50).

For `CCCCCCCCCCCCCCC[C@@H](O)C(=O)N[C@@H](CO[C@@H]1O[C@H](CO)[C@@H](O)[C@H](O)[C@H]1O)[C@H](O)/C=C/CC/C=C(\C)CCCCCCCCC` [CEREBROSIDE], the 50% inhibitory concentration (IC50) came out at 62.7 µM. Turning to `CC(C)=CCC/C(C)=C/CC[C@@]1(C)C=Cc2c(cc(C)c(C(=O)O)c2O)O1` [DAURICHROMENIC ACID], 24.7 µM corresponded to half-maximal inhibition (IC50). Regarding `CC(C)=CCC/C(C)=C/CC/C(C)=C/Cc1c(O)cc(C)c(C(=O)O)c1O` [GRIFOLIC ACID], 20.3 µM corresponded to half-maximal inhibition (IC50).

For `CC(C)=CCC/C(C)=C/CC/C(C)=C/Cc1c(O)cc(C)cc1O` [GRIFOLIN], the IC50 turned out to be 149 µM.
